One test concerns LAPC-4. Description: MTT growth inhibition, prostate cancer cell line LAPC-4. The test is classed as cell-based, human. Particulars: for IC50: Homo sapiens, LAPC4, MTT assay, average of three independent experiments. The protocol:
This MTT assay was carried using human prostate cancer cell lines CWR22R, LAPC-4 and LnCap using Promega cell titer 96 nonradioactive cell proliferation kits. Cells were trypsinized and centrifuged at 1000 rpm for 5 minutes and the supernatant was aspirated. Cells were resuspended with HBSS to a concentration of 10^6/ml. Cell suspension was diluted in serum containing medium to plate 2000 cells/well/0.2 ml. Cell suspension was transferred to sterile solution basin. Cells were plated using multichannel pipette set at 200 μl and incubated overnight for attachment. One plate was prepared for day 0 MTT assay as follows: 100 μl of media was removed from each well using multichannel pipette and 15 μl of MTT reagent was added. Plates were incubated at 37° C. for 4 hrs. […] of STOP solution was added to each well and incubated at room temperature for 1 hour. Absorbance was measured at 570 and 650 nm on plate reader. All the media from the remaining plates were carefully removed and the cells were treated with the media containing drug. MTT assays were done on days 0, 3, 5 and 7. In the preliminary screening […] BPU sulfur analogs 6l, 6h, 6n, 7d and 8h were screened and their activity was compared with compound 1.
Compounds with significant inhibitory activity in pancreatic cancer cells were further evaluated against prostate cancer cell lines in the MTT assay, (Mosmann, T., J. Immunol. Methods 65:55-63 (1983)) and the results were compared to those for compound 1 (Table 3).
Background: Formazan colour is commonly taken as a measure of viable cells.

A further test has as its system MCF-7 cells. Description: Apoptosis of MCF-7 cells. The class given is cell-based. As to conditions: 48 hours.
A further test relates to Panc430. Description: MTT growth inhibition, pancreatic cell line Panc430. The class given is cell-based. Particulars: for IC50: MTT assay, 96 h treatment, average of three independent experiments. The protocol:
(§1) Eight of these analogs 6d, 6h, 6n, 6g, 7b, 7d, 8g, and 8h were tested for their cytotoxicity in seven pancreatic cell lines ASPC1, Panc1, Panc203, Panc430, Pane 1005, MiaPaca2, and HS766T using MTT assay. Cells were trypsinized, seeded at 5×10^3 cells/well in 96-well plate and allowed to grow for 24 hours before the treatment with exponential increasing concentrations of drugs in the presence of 10% FBS. After a 96-hours period of treatment, 20 μl of MTT solution (5 mg/ml in PBS) were added to each well, and the plates were then incubated for 3 hours at 37° C. Medium was then replaced with 100 μl of DMSO per well. Plates were shaken and the optical density was measured at 570 nm using a multiwell plate reader (Bio-Rad, Model 550, Bio-Rad Inc., Hercules, Calif.). Each experiment was performed in triplicate for each drug concentration and was carried out independently at least 3 times. The IC50 value was defined as the concentration needed for a 50% reduction in the absorbance calculated based on the survival curves. Response to drug treatment was assessed by standardizing treatment groups to untreated controls. Compounds activity was compared with compound 1.
(§2) Table 2 (Growth Inhibition of Pancreatic Cancer Cell Lines by BPU and BPTU Analogues (IC50) a) compares the cytotoxicity of a series of new derivatives against a panel of seven pancreatic cancer cell lines, as determined by MTT assay. See, Mosmann, T., J. Immunol. Methods 65:55-63 (1983).

The test system of a further test is tubulin. Description: Inhibition of [3H]colchicine binding. Particulars: Tubulin 1 μM; [3H]colchicine and inhibitor at 5 μM.
A further test concerns CWR22R. Description: MTT growth inhibition, prostate cancer cell line CWR22R. As to conditions: for IC50: Homo sapiens, 22Rv1, MTT assay, average of three independent experiments. The class given is cell-based, human.
A further test deals with Miapaca2. Description: MTT growth inhibition, pancreatic cell line Miapaca2. The test is classed as cell-based. Particulars: for IC50: Homo sapiens, MIA PaCa-2, MTT assay, 96 h treatment, average of three independent experiments. The protocol:
as §1, §2

Broadly, the IC50 is the concentration needed to halve the response being measured. Take `O=C(NC(=O)c1ccccc1[N+](=O)[O-])Nc1ccc(Sc2ncc(Br)cn2)cc1` [Compound 6n, 1-[4-(5-Bromopyrimidin-2-ylsulfanyl)phenyl]-3-(2-nitrobenzoyl)-urea]: the concentration for half-maximal inhibition (IC50) in the test on LAPC-4 amounted to 50 nM; in the test on Panc430, 90 nM; in the test with CWR22R it was 50 nM; with Miapaca2, 86 nM. Further, the rate of apoptosis in the test with MCF-7 cells (10 nM) worked out at 29.7%; in the test with MCF-7 cells (30 nM), 51.2%; in the test with MCF-7 cells (100 nM), 53.6%. The “increase in potency over 6m” value in the test on Panc430 (Panc430) was determined as 111 fold; in the test on CWR22R (CWR22R) it was 100 fold; in the test with Miapaca2 (Mia-paca2) it was 8 fold. Moreover, the “colchicine binding (% ± SD), inhibition of [3H]colchicine binding” value with tubulin is listed as 17 ± 3%.
On to `Nc1ccccc1C(=O)NC(=O)Nc1ccc(Sc2ncc(Br)cn2)cc1` [Compound 7d], for which the IC50 was 100 nM in the test with LAPC-4, 200 nM with Panc430, 500 nM in the test on CWR22R and 95 nM in the test with Miapaca2. Also, the “increase in activity compared to 7c” value in the test with LAPC-4 (LAPC-4) is on record as 7 fold; in the test on Panc430 (Panc430) it was more than 50 fold; in the test on Miapaca2 (Miapaca2), 9 fold.
